Source: publication PMC5923414, “Terpenoids from the Soft Coral Sinularia sp. Collected in Yongxing Island” (Marine Drugs, 2018)
Like-named read-outs stand apart in the source and are kept apart here.

Experiments:
cytotoxicity, MTT method = type: cell-based; conditions: human
Procedure: The cytotoxicities against Jurkat, MDA-MB-231, U2OS, HeLa, HCT-116, and A549 cell lines were assayed by MTT method with Adriamycin as a positive control. All the cell lines were purchased from Shanghai Institute of Cell Biology (Shanghai, China).

acetylcholinesterase = acetylcholinesterase (Homo sapiens, UniProt P22303); test: acetylcholinesterase inhibition, Ellman spectrophotometric method; type: biochemical; conditions: at 50 μg/mL; read-out: inhibition rate against acetylcholinesterase
Procedure: (§1) Evaluation of the inhibitory effects on acetylcholinesterase was performed by the spectrophotometric method developed by Ellman with slight modifications as reported, and on c-Met and PTP1B by using the enzyme-linked immunosorbent assay (ELISA) methodology.

[1] = test system: Plasmodium falciparum 3D7; test: in vitro antimalarial activity, SYBR-Green assay; type: cell-based; conditions: 10 nM dihydroartemisinine as positive control, read-out: IC50, antimalarial activity against P. falciparum 3D7
Procedure: The in vitro antimalarial activity was assessed against P. falciparum (3D7) using an SYBR-Green assay with 10 nM dihydroartemisinine as positive control. Twelve diluted samples (5 µM, 10 µM, 20 µM, 40 µM, 80 µM, 100 µM, 200 µM, 400 µM, 800 µM, 1 mM, 2 mM, and 4 mM) were added to the test wells to obtain the 50% inhibiting concentration.

influenza A virus (PR8) = test: antiviral activity, CPE inhibition assay; type: cell-based; conditions: read-out: IC50 against influenza A virus PR8
Procedure: (§2) The antiviral activities against influenza A virus (H1N1) and (PR8) were evaluated by the CPE inhibition assay as the literature reported. […]

influenza A virus (H1N1) = test: antiviral activity, CPE inhibition assay; type: cell-based
Procedure: as §2

[2] = target: T1, protein tyrosine phosphatase 1B (PTP1B) (Homo sapiens, UniProt P18031); test: biochemical; conditions: read-out: IC50, target inhibitory activity against PTP1B
T1 sequence (P18031 1-435): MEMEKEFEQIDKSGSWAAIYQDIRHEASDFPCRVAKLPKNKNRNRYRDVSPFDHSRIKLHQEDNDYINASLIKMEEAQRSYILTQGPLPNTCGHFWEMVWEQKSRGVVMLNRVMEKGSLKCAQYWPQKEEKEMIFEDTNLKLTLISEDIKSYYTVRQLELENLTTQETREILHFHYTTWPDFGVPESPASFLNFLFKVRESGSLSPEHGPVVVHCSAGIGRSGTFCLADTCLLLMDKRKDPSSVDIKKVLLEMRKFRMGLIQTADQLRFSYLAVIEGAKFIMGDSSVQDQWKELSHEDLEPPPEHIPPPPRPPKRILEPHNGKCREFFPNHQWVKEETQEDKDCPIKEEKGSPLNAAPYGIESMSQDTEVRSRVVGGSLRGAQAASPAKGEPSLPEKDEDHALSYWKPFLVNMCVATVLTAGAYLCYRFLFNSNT
Procedure: as §1

Chain of acetylcholinesterase (P22303 32-614, species assumed): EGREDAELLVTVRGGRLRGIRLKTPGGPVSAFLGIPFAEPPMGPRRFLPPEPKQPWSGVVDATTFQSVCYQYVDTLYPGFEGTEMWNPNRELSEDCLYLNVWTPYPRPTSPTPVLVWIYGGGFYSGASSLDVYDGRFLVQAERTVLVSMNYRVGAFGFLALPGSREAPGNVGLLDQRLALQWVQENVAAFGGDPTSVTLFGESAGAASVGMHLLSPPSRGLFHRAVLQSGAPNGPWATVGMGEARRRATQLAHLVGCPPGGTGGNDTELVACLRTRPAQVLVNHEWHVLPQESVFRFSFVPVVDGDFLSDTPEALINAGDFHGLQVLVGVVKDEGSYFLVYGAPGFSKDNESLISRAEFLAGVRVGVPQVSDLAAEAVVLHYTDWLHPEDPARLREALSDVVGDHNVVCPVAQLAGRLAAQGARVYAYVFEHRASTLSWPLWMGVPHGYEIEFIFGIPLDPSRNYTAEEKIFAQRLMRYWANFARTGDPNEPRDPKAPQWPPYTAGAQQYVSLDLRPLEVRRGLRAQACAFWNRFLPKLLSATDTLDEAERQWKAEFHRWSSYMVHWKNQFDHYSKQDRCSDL

Compound: C=C1CCC2(O)CC3(CCC(C(C)C)C3C1)OO2 (stereo not shown) [Compound 1, Sinuketal]
- IC50 (cytotoxicity, MTT method; Jurkat cells, Jurkat cell line, read-out: IC50, cytotoxic activity toward Jurkat): 24.9 µM
- IC50 (cytotoxicity, MTT method; MDA-MB-231 cells, MDA-MB-231 cell line, read-out: IC50, cytotoxic activity toward MDA-MB-231): 32.3 µM
- IC50 (cytotoxicity, MTT method; U2OS cells, U2OS cell line, read-out: IC50, cytotoxic activity toward U2OS): 41.7 µM
- inhibition at 50 µg/mL (acetylcholinesterase): 20.2%
- IC50 [1]: 80 µM
- IC50 (influenza A virus (PR8)): 443 µM
- IC50 (influenza A virus (H1N1); H1N1, read-out: IC50 against influenza A virus H1N1): 172 µM

Compound: CC(C)[C@@H]1CC[C@@](C)(O)[C@@H]2CCC(CO)=C[C@H]21 [Compound 11, 15-hydroxy-α-cadinol]
- IC50 [2]: 22.1 µM

Compound: C=C(C)C1CCC(C)=CCCC(C)=CCCC2(C)OC2C1 [Compound 15, (1R,3S,4S,7E,11E)-3,4-epoxycembra-7,11,15-triene]
- IC50 [2]: 12.5 µM

Compound: NC(=O)c1ncn([C@@H]2O[C@H](CO)[C@@H](O)[C@H]2O)n1 [ribavirin, reference compound]
- IC50 (influenza A virus (H1N1); positive control, strain (H1N1 or PR8) not specified, read-out: IC50 of positive control, influenza A viruses): 103 µM

Compound: C=C(C)[C@@H]1C/C=C2\C(=O)O[C@@H](C[C@]3(C)CC(=O)[C@H](CC(=O)C1)O3)[C@@H]2O [Compound 20, 5-episinuleptolide]
- IC50 (cytotoxicity, MTT method; HCT-116 cells, HCT-116 cell line, read-out: IC50, cytotoxicity against HCT-116): 33.3 µM
- IC50 (cytotoxicity, MTT method; HeLa cells, HeLa cell line, read-out: IC50, cytotoxicity against HeLa): 11.6 µM

Compound: C=C(C)C1CC=C(C(=O)OC)CC(=O)CC2(C)CC(=O)C(CC(=O)C1)O2 (stereo not shown) [Compound 5, sinulin D]
- IC50 [2]: 47.5 µM
